The target in this test is Proto-oncogene tyrosine-protein kinase Src (Homo sapiens, UniProt P12931). Description: Binding affinity for p60 c-Src SH2 domain by scintillation proximity assay (SPA).
Proto-oncogene tyrosine-protein kinase Src, sequence (P12931 2-536 limits assumed): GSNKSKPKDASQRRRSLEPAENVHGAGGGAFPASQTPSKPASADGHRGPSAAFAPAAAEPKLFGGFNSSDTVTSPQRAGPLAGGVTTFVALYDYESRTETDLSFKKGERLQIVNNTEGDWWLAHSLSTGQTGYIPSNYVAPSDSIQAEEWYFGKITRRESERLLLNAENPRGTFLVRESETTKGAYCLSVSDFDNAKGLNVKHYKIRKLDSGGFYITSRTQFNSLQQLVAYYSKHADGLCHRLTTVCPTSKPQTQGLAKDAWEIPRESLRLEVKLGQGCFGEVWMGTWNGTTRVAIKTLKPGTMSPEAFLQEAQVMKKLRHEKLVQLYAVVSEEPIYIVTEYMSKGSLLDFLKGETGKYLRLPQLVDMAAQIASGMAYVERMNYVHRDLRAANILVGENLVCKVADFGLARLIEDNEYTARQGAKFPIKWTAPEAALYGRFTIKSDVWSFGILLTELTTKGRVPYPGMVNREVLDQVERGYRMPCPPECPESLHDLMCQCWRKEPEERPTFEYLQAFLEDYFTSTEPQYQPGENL
Consider `CC(=O)N[C@@H](Cc1ccc(C(F)(F)P(=O)(O)O)cc1)C(=O)NC(C)c1nc(SCC2CCCCC2)c(C(N)=O)n1C` (stereo partly drawn), for which the half-maximal inhibitory concentration (IC50) (in general, the concentration that gives 50% inhibition) is 5.3 µM.

The compound `CCOC(=O)c1c(SCC2CCCCC2)nc(C(C)NC(=O)[C@H](Cc2ccc(OP(=O)(O)O)cc2)NC(C)=O)n1C` (stereo partly drawn) displayed a concentration for half-maximal inhibition (IC50) of 6.9 µM. The same measure for `CC(=O)N[C@@H](Cc1ccc(OP(=O)(O)O)cc1)C(=O)NC(C)c1nc(SCC2CCCCC2)c(C(N)=O)n1C` (stereo partly drawn): 8.6 µM.

The record behind these values is ChEMBL document CHEMBL1135301, “Imidazole-based ligands of the Src SH2 protein” (Bioorg Med Chem Lett, 2002).
